Here are results for one compound from patent publication EP1733731A1, “New uses of Glycerol derivatives in particular in cosmetics” (AGRO INDUSTRIE RECHERCHES ET DEVELOPPEMENTS (A.R.D.), priority 2005, dated 2006).

Assay [1] concerns the target T1, plasmine humaine (Homo sapiens, UniProt P00747).
T1 construct: connus pour interagir avec la plasmine via son domaine kringle V; testé in vitro sur l'activité amidolytique de la plasmine à l'aide d'un substrat synthétique (S-2251, Chromogénix)
Kind of assay: amidolytic activity of plasmin on synthetic substrate S-2251. The format is biochemical. As for the experimental part: L'effet de ces différentes fractions et produits purs a donc été testé in vitro sur l'activité amidolytique de la plasmine à l'aide d'un substrat synthétique (S-2251, Chromogénix).
Les fractions ou composés purs issus de l'extraction sont solubilisés avant utilisation dans du diméthylsulfoxyde (DMSO) à une concentration de stockage de 20 mg/mL. La conservation est effectuée à -80°C. 12 nM de plasmine humaine sont pré-incubés en absence et en présence de concentrations croissantes (0 à 200 µg/mL) des différentes fractions et produits dans un tampon Tris-HCl 100 mM pH 7,5. La réaction est déclenchée par addition de 0,3 mM de S-2251. L'hydrolyse du S-2251 est suivie par mesure de l'absorbance du para-nitroaniline à 405 nm. La courbe représentant les variations d'absorbance en fonction du temps est tracée et la vitesse initiale de la réaction est déterminée par calcul de la pente de la tangente à l'origine. Le rapport Vi/Vo est calculé, où Vo représente la vitesse initiale en absence d'effecteur et Vi cette vitesse en présence d'un effecteur, et la courbe Vi/Vo en fonction de la concentration en en glycolipides est tracée.

Assay [2] has as its target T1, plasmine humaine. Kind of assay: activation of proMMP-3 by plasmin in vitro (western blot). The format is biochemical. As to conditions: 25 µg/mL; 65 nM plasmin, 100 nM proMMP-3; Figure 1A-4. The method, then:
• La Figure 1 représente la modulation de l'activation des proMMP-3 (Figures 1A et 1B) et proMMP-1 (Figure 1C) in vitro comme en culture par des extraits glycolipidiques du gluten de blé. • Figure 1A : 100 nM de proMMP-3 (Figure 1A-1) sont incubés avec 65 nM de plasmine en absence (Figure 1A-2) ou en présence de glycolipides (Figure 1A-3 et 4), à la concentration de 50µg/mL pour M1-Sucres (Figure 1A-3) et 25 µg/mL pour ED 23-11 (Figure 1A-4). • Figure 1B : des fibroblastes dermiques sont ensemencés en plaque 24 puits à raison de […] cellules par puits jusque confluence. Après une mise au repos de 18 heures, les cellules sont incubées en présence (Figure 1B-2, 3 et 4) ou non (Figure 1B-1) de 2,5 µg/mL de plasmine ainsi que des glycolipides M1(-Sucres) (Figure 1B-3) et ED 23-11 (Figure 1B-4) aux mêmes concentrations que précédemment. • Figure 1C : des fibroblastes dermiques sont ensemencés en plaque 24 puits à raison de […] cellules par puits jusque confluence. Après une mise au repos de 18 heures, les cellules sont incubées en présence (Figure 1C-2, 3 et 4) ou non (Figure 1C-1) de 2,5 µg/mL de plasmine ainsi que des glycolipides M1(-Sucres) (Figure 1C-3) et ED 23-11 (Figure 1C-4) aux mêmes concentrations que précédemment. Dans l'ensemble des figures 1A, 1B et 1C, la réaction est arrêtée aux temps indiqués par addition de 0,3 mg/ml d'aprotinine. […]

T1 sequence (P00747 97-580 limits assumed): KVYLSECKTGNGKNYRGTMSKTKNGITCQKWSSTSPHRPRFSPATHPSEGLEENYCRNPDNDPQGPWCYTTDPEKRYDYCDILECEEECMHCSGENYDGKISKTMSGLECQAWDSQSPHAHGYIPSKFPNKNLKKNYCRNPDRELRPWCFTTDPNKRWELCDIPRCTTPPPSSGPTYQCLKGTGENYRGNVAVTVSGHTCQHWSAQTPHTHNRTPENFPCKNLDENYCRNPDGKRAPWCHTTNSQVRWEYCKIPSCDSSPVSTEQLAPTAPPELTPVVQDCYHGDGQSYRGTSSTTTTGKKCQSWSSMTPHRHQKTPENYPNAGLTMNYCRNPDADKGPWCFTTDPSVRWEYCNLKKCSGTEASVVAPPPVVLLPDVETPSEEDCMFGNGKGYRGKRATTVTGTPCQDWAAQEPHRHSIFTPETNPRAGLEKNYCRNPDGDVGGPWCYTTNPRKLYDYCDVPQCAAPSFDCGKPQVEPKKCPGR
T1 sequence (P00747 581-810 limits assumed): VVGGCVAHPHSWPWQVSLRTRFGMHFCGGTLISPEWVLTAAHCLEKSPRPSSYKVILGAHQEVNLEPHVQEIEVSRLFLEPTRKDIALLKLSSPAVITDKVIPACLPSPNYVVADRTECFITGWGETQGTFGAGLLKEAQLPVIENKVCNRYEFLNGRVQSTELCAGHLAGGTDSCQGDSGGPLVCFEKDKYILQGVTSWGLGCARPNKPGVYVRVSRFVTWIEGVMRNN

Take `CCCCC/C=C\C/C=C\CCCCCCCCOC[C@H](CO[C@@H]1O[C@H](COC(=O)CCCCCCCCCCCCCCC)[C@H](O)[C@H](O)[C@H]1O)OCCCCCCCC/C=C\C/C=C\CCCCC` [ED23-11, 1,2-di-O-linoléyl-3-O-[6'-O-palmitoyl-β-D-galactopyranosyl]-sn-glycérol]: on plasmine humaine [1] (25 µg/mL, 12 nM plasmin, 0,3 mM S-2251), the “Plasmine (Vi/Vo)” value is 2,11 ± 0,16. The “Action sur l'activité de la plasmme (Vi/V0) à isoconcentration” value at plasmine humaine [1] (at isoconcentration) is listed as 8,44. Also, the “Augmentation d'activité” value on plasmine humaine [1] (plasmin amidolytic activity, increase from one fractionation step to the next) is recorded as 2,36. The “activation de la proMMP-3 par la plasmine” value at plasmine humaine [2] is recorded as “inhibition”.
